Target: T1, human OT receptor (Homo sapiens, UniProt P30559)
T1 construct: expressed in transfected cells; host or cells: mammalian cell line, e.g. Chinese hamster ovary (CHO), stably or transiently transfected; co-transfected with a firefly luciferase reporter (e.g. NFAT promoter)
T1 sequence (P30559 1-389): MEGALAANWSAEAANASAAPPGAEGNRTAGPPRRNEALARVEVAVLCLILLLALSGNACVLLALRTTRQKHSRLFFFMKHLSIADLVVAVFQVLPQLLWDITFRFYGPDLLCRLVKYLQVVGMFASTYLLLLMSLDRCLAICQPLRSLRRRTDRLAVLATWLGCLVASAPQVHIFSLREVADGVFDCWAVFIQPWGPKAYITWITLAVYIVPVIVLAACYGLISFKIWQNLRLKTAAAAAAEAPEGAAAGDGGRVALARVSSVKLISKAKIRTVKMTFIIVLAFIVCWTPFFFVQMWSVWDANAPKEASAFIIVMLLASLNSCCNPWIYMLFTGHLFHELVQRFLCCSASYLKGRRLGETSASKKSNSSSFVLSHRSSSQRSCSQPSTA
Experiment: human OT receptor agonist assay, luciferase reporter (NFAT promoter) in transfected CHO cells
Format: cell-based
Conditions: for OT (efficacy): maximal efficacy compared to the maximal stimulation observed with OT; for EC50: concentration at which the response is 50% of the maximum, 4-parameter logistic fit, luciferase reporter in cells expressing the human OT receptor
Protocol: In addition, the cells are transfected with a gene for firefly luciferase under the control of a suitable promoter, e.g. NFAT promoter. Contact of the OT receptor by an agonist leads to stimulation of luciferase synthesis, the extent of which is measured using commercially available reagents. Concentrations at which the response is 50% of the maximum are calculated by fitting of data to 4-parameter logistic curves. Maximal efficacy is calculated compared to the maximal stimulation observed with OT.

| SMILES | OT (efficacy) [%] | EC50 [nM] |
| --- | --- | --- |
| Cc1cc(C(=O)N2Cc3cnn(C)c3Nc3ccccc32)ccc1CNC(=O)N1CCN(Cc2cc(O)cc(O)c2)CC1 [Example 1, 4-(3,5-Dihydroxy-benzyl)-piperazine-1-carboxylic acid 2-methyl-4-(3-methyl-4,10-dihydro-3H-2,3,4,9-tetraaza-benzo[f]azulene-9-carbonyl)-benzylamide] | 76 | – |
| Cn1ncc2c1Nc1ccccc1N(C(=O)c1ccc(CNC(=O)N3CCN(Cc4cc(O)cc(O)c4)CC3)c(F)c1)C2 [Example 4, 4-(3,5-Dihydroxy-benzyl)-piperazine-1-carboxylic acid 2-fluoro-4-(3-methyl-4,10-dihydro-3H-2,3,4,9-tetraaza-benzo[f]azulene-9-carbonyl)-benzylamide] | 51 | 74 |
| Cc1cc(C(=O)N2Cc3cnn(C)c3Nc3ccccc32)ccc1CNC(=O)N1CCN(Cc2cccc(C(=S)N(C)C)c2)CC1 [Example 6, 4-(3-Dimethylthiocarbamoyl-benzyl)-piperazine-1-carboxylic acid 2-methyl-4-(3-methyl-4,10-dihydro-3H-2,3,4,9-tetraaza-benzo[f]azulene-9-carbonyl)-benzylamide] | 21 | 190 |

More lines, now with the values ahead:

| OT (efficacy) [%] | EC50 [nM] | SMILES |
| --- | --- | --- |
| 16 | 24 | Cc1cc(C(=O)N2Cc3cnn(C)c3Nc3ccccc32)cc(C)c1CNC(=O)N1CCN(Cc2cc(O)cc(O)c2)CC1 [Example 2, 4-(3,5-Dihydroxy-benzyl)-piperazine-1-carboxylic acid 2,6-dimethyl-4-(3-methyl-4,10-dihydro-3H-2,3,4,9-tetraaza-benzo[f]azulene-9-carbonyl)-benzylamide] |
| 41 | 58 | Cn1ncc2c1Nc1ccccc1N(C(=O)c1ccc(CNC(=O)N3CCN(Cc4cc(O)cc(O)c4)CC3)cc1Cl)C2 [Example 3, 4-(3,5-Dihydroxy-benzyl)-piperazine-1-carboxylic acid 3-chloro-4-(3-methyl-4,10-dihydro-3H-2,3,4,9-tetraaza-benzo[f]azulene-9-carbonyl)-benzylamide] |
| 13 | 33 | Cc1cc(C(=O)N2Cc3cnn(C)c3Nc3ccccc32)ccc1CNC(=O)N1CCN(Cc2cccc(C(=O)N(C)C)c2)CC1 [Example 5, 4-(3-Dimethylcarbamoyl-benzyl)-piperazine-1-carboxylic acid 2-methyl-4-(3-methyl-4,10-dihydro-3H-2,3,4,9-tetraaza-benzo[f]azulene-9-carbonyl)-benzylamide] |
